Numbered stars: 1 amine (or outer) side, 2 acyl side, 3 side chain; on linkers, the order of the positions; unused ones are H or OH. Bridge positions count the residues as written; N and C are the ends. Square brackets hold non-standard residues; d marks the D form. Peptide text beside a SMILES is read from it. * marks the point of attachment. ξ: configuration not given here. X2 = CC(C)C[C@H](N[*:1])C(=O)C[C@H](C(=O)[*:2])C(C)C; Phe(3-CF3) = N[C@@H](Cc1cccc(C(F)(F)F)c1)C(=O)O; Ala(morpholin-4-yl) = N[C@@H](CN1CCOCC1)C(=O)O; Phe(4-CONH2) = NC(=O)c1ccc(C[C@H](N)C(=O)O)cc1; Phe(4-COOH) = N[C@@H](Cc1ccc(C(=O)O)cc1)C(=O)O; Bip = N[C@@H](Cc1ccc(-c2ccccc2)cc1)C(=O)O; Phe(3-Me) = Cc1cccc(C[C@H](N)C(=O)O)c1; NH(CH2)12COOH = O=C(O)CCCCCCCCCCCCN*; Val(3-OH) = CC(C)(O)[C@H](N)C(=O)O; Cha = N[C@@H](CC1CCCCC1)C(=O)O; Cit = NC(=O)NCCC[C@H](N)C(=O)O; Thr(3ξ) = CC(O)[C@H](N)C(=O)O; 12Ado = NCCCCCCCCCCCC(=O)O; dOrn = NCCC[C@@H](N)C(=O)O; dDab = NCC[C@@H](N)C(=O)O; hSer = N[C@@H](CCO)C(=O)O; Carboxymethyl = O=C(O)C*; Orn = NCCC[C@H](N)C(=O)O; Aun = NCCCCCCCCCCC(=O)O; Dab = NCC[C@H](N)C(=O)O; Dap = NC[C@H](N)C(=O)O; AEEA = NCCOCCOCC(=O)O
These compounds were tested against T1, PD-1/PD-L1 interaction (PE-labeled human PD-L1-Ig binding to Jurkat cell line over-expressing human PD-1) (Homo sapiens, UniProt Q15116) (assay: Jurkat-PD-1 Cell Binding High-Content Screening Assay (CBA)). Conditions: Jurkat cell line over-expressing human PD-1; PE-labeled PD-L1-Ig 20 nM final; read-out: Jurkat hPD1-PDL1 IC50.
T1 construct: expressed in transfected cells; host or cells: Jurkat
T1 sequence (Q15116 25-288): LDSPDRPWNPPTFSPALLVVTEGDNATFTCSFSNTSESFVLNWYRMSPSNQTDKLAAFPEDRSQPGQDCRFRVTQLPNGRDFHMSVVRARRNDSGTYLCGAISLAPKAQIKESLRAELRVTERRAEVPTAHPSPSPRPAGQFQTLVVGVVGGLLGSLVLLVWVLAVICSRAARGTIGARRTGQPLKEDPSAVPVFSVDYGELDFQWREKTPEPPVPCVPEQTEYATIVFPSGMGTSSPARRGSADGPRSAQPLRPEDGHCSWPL
Type: cell-based
Summary of the method: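 Binding of fluorescent PD-L1-Ig (phycoerythrin on Ig tag, 20 nM final, 1 h) measured by high-content imaging of fixed, Hoechst-counterstained Jurkat-hPD-1 cells. Compound added 2 h at 37° C beforehand, in DMEM with 10% fetal calf serum.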

| SMILES | IC50 [nM] |
| --- | --- |
| Cc1cccc(C[C@@H]2NC(=O)[C@H](CC(=O)O)NC(=O)[C@H](Cc3ccc(OCC(=O)O)cc3)NC(=O)[C@H](C(C)O)NC(=O)CSC[C@@H](C(=O)N[C@@H](CCN)C(=O)NCCCCCCCCCCC(=O)O)NC(=O)[C@H](CCO)NC(=O)[C@H](C(C)C)NC(=O)[C@H](CC3CCCCC3)NC(=O)[C@H](CCN)NC(=O)[C@@H](CC(C)C)NC(=O)[C@H](CCCN)NC(=O)[C@H](Cc3ccc(OCC(=O)O)cc3)NC(=O)[C@H](Cc3ccc(-c4ccccc4)cc3)NC(=O)[C@H](Cc3ccc(C(=O)O)cc3)NC2=O)c1 (stereo partly drawn) [Compound 3483] ({CH2CO}-[Thr(3ξ)]Y(Carboxymethyl)D[Phe(3-Me)][Phe(4-COOH)][Bip]Y(Carboxymethyl)[Orn][dL][Dab][Cha]V[hSer]C[Dab][Aun]-OH; thioether N-14) | 9.5 |
| Cc1cccc(C[C@@H]2NC(=O)[C@H](CC(=O)O)NC(=O)[C@H](Cc3ccc(OCC(=O)O)cc3)NC(=O)[C@H](Cc3ccc(C(N)=O)cc3)NC(=O)CSC[C@@H](C(=O)N[C@@H](CCN)C(=O)NCCCCCCCCCCC(=O)O)NC(=O)[C@H]([C@@H](C)O)NC(=O)[C@H](C(C)C)NC(=O)[C@H](CC3CCCCC3)NC(=O)[C@H](CCN)NC(=O)[C@@H](CC(C)C)NC(=O)[C@H](CCCN)NC(=O)[C@H](Cc3ccc(OCC(=O)O)cc3)NC(=O)[C@H](Cc3ccc(-c4ccccc4)cc3)NC(=O)[C@H](Cc3ccc(OCC(=O)O)cc3)NC2=O)c1 [Compound 2925] ({CH2CO}-[Phe(4-CONH2)]Y(Carboxymethyl)D[Phe(3-Me)]Y(Carboxymethyl)[Bip]Y(Carboxymethyl)[Orn][dL][Dab][Cha]VTC[Dab][Aun]-OH; thioether N-14) | 36.6 |
| Cc1cccc(C[C@@H]2NC(=O)[C@H](CC(=O)O)NC(=O)[C@H](Cc3ccc(OCC(=O)O)cc3)NC(=O)[C@H](CCCNC(=N)N)NC(=O)CSC[C@@H](C(=O)N[C@@H](CCCCN)C(=O)N[C@@H](CO)C(=O)NCCCCCCCCCCCC(=O)O)NC(=O)[C@H](CN)NC(=O)[C@H](C(C)C)NC(=O)[C@H](CC3CCCCC3)NC(=O)[C@H](CCN)NC(=O)[C@@H](CC(C)C)NC(=O)[C@H](CCCN)NC(=O)[C@H](C(C)C)NC(=O)[C@H](Cc3ccc(-c4ccccc4)cc3)NC(=O)[C@H](C(C)C)NC2=O)c1 [Compound 3535] ({CH2CO}-RY(Carboxymethyl)D[Phe(3-Me)]V[Bip]V[Orn][dL][Dab][Cha]V[Dap]CKS[12Ado]-OH; thioether N-14) | 13.4 |
| CC(C)C[C@H]1NC(=O)[C@H](CCCN)NC(=O)[C@H](CCCNC(N)=O)NC(=O)[C@H](Cc2ccc(-c3ccccc3)cc2)NC(=O)[C@H](C(C)C)NC(=O)[C@H](Cc2c[nH]c3ccccc23)NC(=O)[C@H](CC(=O)O)NC(=O)[C@H](Cc2ccc(OCC(=O)O)cc2)NC(=O)[C@H](C(C)O)NC(=O)CSC[C@@H](C(=O)N[C@@H](CCN)C(=O)NCCOCCOCC(=O)NCCCCCCCCCCC(=O)O)NC(=O)[C@H](C(C)O)NC(=O)[C@H](C(C)(C)O)NC(=O)[C@H](CC2CCCCC2)NC(=O)[C@H](CCN)NC1=O (stereo partly drawn) [Compound 3736] ({CH2CO}-[Thr(3ξ)]Y(Carboxymethyl)DWV[Bip][Cit][Orn][dL][Dab][Cha][Val(3-OH)][Thr(3ξ)]C[Dab][AEEA][Aun]-OH; thioether N-14) | 18.5 |
| Cc1cccc(C[C@@H]2NC(=O)[C@H](CC(=O)O)NC(=O)[C@H](Cc3ccc(OCC(=O)O)cc3)NC(=O)[C@H](Cc3ccc(O)cc3)NC(=O)CSC[C@@H](C(=O)N[C@@H](CCN)C(=O)NCCCCCCCCCCC(=O)O)NC(=O)[C@H]([C@@H](C)O)NC(=O)[C@H](C(C)C)NC(=O)[C@H](CC3CCCCC3)NC(=O)[C@H](CCN)NC(=O)[C@@H](CC(C)C)NC(=O)[C@H](CCCN)NC(=O)[C@H](CCCNC(N)=O)NC(=O)[C@H](Cc3ccc(-c4ccccc4)cc3)NC(=O)[C@H](C(C)C)NC2=O)c1 [Compound 2826] ({CH2CO}-YY(Carboxymethyl)D[Phe(3-Me)]V[Bip][Cit][Orn][dL][Dab][Cha]VTC[Dab][Aun]-OH; thioether N-14) | 62.2 |

More lines, in order of falling IC50, values ahead:

| IC50 [nM] | SMILES |
| --- | --- |
| 216 | CC(C)C[C@H]1NC(=O)[C@H](CCCN)NC(=O)[C@H](Cc2ccc(C(=O)O)cc2)NC(=O)[C@H](Cc2ccc(-c3ccccc3)cc2)NC(=O)[C@H](Cc2ccc(C(=O)O)cc2)NC(=O)[C@H](Cc2cccc(C(F)(F)F)c2)NC(=O)[C@H](CC(=O)O)NC(=O)[C@H](Cc2ccc(OCC(=O)O)cc2)NC(=O)[C@H](CN2CCOCC2)NC(=O)CSC[C@@H](C(=O)N[C@H](CCN)C(=O)NCCOCCOCC(=O)NCCOCCOCC(=O)NCCCCCCCCCCCCC(=O)O)NC(=O)[C@H](CO)NC(=O)[C@H](C(C)(C)O)NC(=O)[C@H](CC2CCCCC2)NC(=O)[C@H](CCN)NC1=O [Compound 3828] ({CH2CO}-[Ala(morpholin-4-yl)]Y(Carboxymethyl)D[Phe(3-CF3)][Phe(4-COOH)][Bip][Phe(4-COOH)][Orn][dL][Dab][Cha][Val(3-OH)]SC[dDab][AEEA][AEEA]-{NH(CH2)12COOH}; thioether N-14) |
| 27.4 | Cc1cccc(C[C@@H]2NC(=O)[C@H](CC(=O)O)NC(=O)[C@H](Cc3ccc(OCC(=O)O)cc3)NC(=O)[C@H](CCCNC(=N)N)NC(=O)CSC[C@@H](C(=O)N[C@@H](CCN)C(=O)NCCCCCCCCCCC(=O)O)NC(=O)[C@H](C(C)O)NC(=O)[C@H](C(C)C)NC(=O)[C@H](CC3CCCCC3)NC(=O)[C@H](CCN)NC(=O)[C@@H](CC(C)C)NC(=O)[C@H](CCC(=O)O)NC(=O)[C@H](Cc3ccc(O)cc3)NC(=O)[C@H](Cc3ccc(-c4ccccc4)cc3)NC(=O)[C@H](Cc3ccc(O)cc3)NC2=O)c1 (stereo partly drawn) [Compound 3373] ({CH2CO}-RY(Carboxymethyl)D[Phe(3-Me)]Y[Bip]YE[dL][Dab][Cha]V[Thr(3ξ)]C[Dab][Aun]-OH; thioether N-14) |
| 23 | Cc1cccc(C[C@@H]2NC(=O)[C@H](CC(=O)O)NC(=O)[C@H](Cc3ccc(OCC(=O)O)cc3)NC(=O)[C@H](Cc3ccccc3)NC(=O)CSC[C@@H](C(=O)N[C@@H](CCN)C(=O)NCCCCCCCCCCC(=O)O)NC(=O)[C@H](CO)NC(=O)[C@H](C(C)(C)O)NC(=O)[C@H](CC3CCCCC3)NC(=O)[C@H](CCN)NC(=O)[C@@H](CC(C)C)NC(=O)[C@H](CCCN)NC(=O)[C@H](Cc3ccc(OCC(=O)O)cc3)NC(=O)[C@H](Cc3ccc(-c4ccccc4)cc3)NC(=O)[C@H](Cc3ccc(OCC(=O)O)cc3)NC2=O)c1 [Compound 3628] ({CH2CO}-FY(Carboxymethyl)D[Phe(3-Me)]Y(Carboxymethyl)[Bip]Y(Carboxymethyl)[Orn][dL][Dab][Cha][Val(3-OH)]SC[Dab][Aun]-OH; thioether N-14) |
| 17.2 | CC(C)C[C@@H]1NC(=O)[C@H](CCN)NC(=O)[C@@H](CC(C)C)NC(=O)[C@H](CCN)NC(=O)[C@H](C(C)C)NC(=O)[C@H](Cc2ccc(-c3ccccc3)cc2)NC(=O)[C@H](CC(C)C)NC(=O)[C@H](Cc2c[nH]c3ccccc23)NC(=O)[C@H](CC(=O)O)NC(=O)[C@H](Cc2ccc(OCC(=O)O)cc2)NC(=O)[C@H](Cc2ccc(OCC(=O)O)cc2)NC(=O)CSC[C@@H](C(=O)N[C@H](CCCN)C(=O)NCCOCCOCC(=O)NCCCCCCCCCCC(=O)O)NC(=O)[C@H](CO)NC(=O)[C@H](C(C)C)CC1=O [Compound 3073] ({CH2CO}-Y(Carboxymethyl)Y(Carboxymethyl)DWL[Bip]V[Dab][dL][Dab][X2]SC[dOrn][AEEA][Aun]-OH; thioether N-13) |
